This note sets out measurements from article PMC4880308, “Elongation Factor Tu Prevents Misediting of Gly-tRNA(Gly) Caused by the Design Behind the Chiral Proofreading Site of D-Aminoacyl-tRNA Deacylase” (PLoS Biology, 2016).

Data set [1] deals with T1, PfDTD (D-aminoacyl-tRNA deacylase from Plasmodium falciparum) (Plasmodium falciparum, UniProt Q8IIS0).
T1 construct: gene DTD; recombinant; C-terminal His-tagged U-15N protein for NMR; dimer with cross-subunit Gly-cisPro motif in the active site
T1 sequence (Q8IIS0 1-164): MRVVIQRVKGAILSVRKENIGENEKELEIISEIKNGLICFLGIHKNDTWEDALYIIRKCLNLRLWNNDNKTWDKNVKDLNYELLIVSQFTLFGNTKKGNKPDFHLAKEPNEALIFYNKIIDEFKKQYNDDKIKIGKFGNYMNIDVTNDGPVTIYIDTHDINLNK
The experiment in a line: 2D […]-1H TROSY NMR titration (chemical shift perturbation). The format is binding. The settings on record: substrate analog; 50 mM HEPES pH 7.0, 50 mM NaCl; 0.2 mM protein, up to 3 mM ligand.

Data set [2] deals with the molecule itself. The experiment in a line: crystal structure; co-crystal of PfDTD with Gly3AA (molar ratio 1:20), P2(1), eight monomers in the asymmetric unit; 0.1 M HEPES pH 7.5, 0.4 M NaCl, 28% PEG3350.

Consider `C[C@@H](N)C(=O)N[C@H]1[C@@H](O)[C@H](n2cnc3c(N)ncnc32)O[C@@H]1CO` [D-Ala3AA, D-alanyl-3′-aminoadenosine], for which the “2D 15N-1H TROSY NMR titration (chemical shift perturbation)” value in data set [1] is recorded as “the data indicated binding of D-Ala3AA but not of L-Ala3AA”.

B1: D-aminoacyl-tRNA deacylase from Plasmodium falciparum (enzyme)
chain: MRVVIQRVKGAILSVRKENIGENEKELEIISEIKNGLICFLGIHKNDTWEDALYIIRKCLNLRLWNNDNKTWDKNVKDLNYELLIVSQFTLFGNTKKGNKPDFHLAKEPNEALIFYNKIIDEFKKQYNDDKIKIGKFGNYMNIDVTNDGPVTIYIDTHDINLNK
notes: D-aminoacyl-tRNA deacylase (DTD), Plasmodium falciparum, UniProt Q8IIS0; no tag is stated for the crystallised protein; The crystal also holds the small-molecule ligand Gly3AA; also called PfDTD; DTD; source: cloned, expressed, and purified as described in [15]
For the molecule B1, the binding result in data set [2] was “binds”.
